Data as given in US11478471B2, “Methods and compositions for treating diabetes, metabolic syndrome and other conditions” (priority 2005, dated 2022).
“Also recorded” adds a separate entry of the source.

Assays:
[1] = Toxicokinetics of racemic ketoconazole in another 28-day dog study (b); conditions: dogs; for Cmax / AUC(0-t) / concentration at 0 h / concentration at 1 h / concentration at 2 h / concentration at 4 h / concentration at 8 h / concentration at 12 h / Tmax: beagle, dog, plasma, po; for AUC(0-t): AUC(0-12), footnote: AUC data is for 0-24 h; for concentration at 0 h / concentration at 1 h / concentration at 2 h / concentration at 4 h / concentration at 8 h / concentration at 12 h: Drug concentration in plasma; for Tmax: Tmax Range
From the text: Two groups of three male and three female dogs per group were studied.
Toxicokinetic samples were collected on Day 1 and during Weeks 2 and 4. […] For the following Table: *Days of treatment.

rat hepatocytes = conditions: cultured rat hepatocytes, four hours exposure; cited from earlier work
[2] = female, 10 mg/kg, study b, powder, 10 mg/kg oral, day 1, F
[3] = female, 10 mg/kg, study b, powder, 10 mg/kg oral, day 28, F
[4] = female, 40 mg/kg, study b, powder, 40 mg/kg oral, day 1, F
[5] = female, 40 mg/kg, study b, powder, dose and days not printed in the row (40 mg/kg, day 28), F
[6] = female, 40 mg/kg, study b, powder, 40 mg/kg oral, day 28, F
[7] = male, 10 mg/kg, study b, powder, 10 mg/kg oral, day 1, M
[8] = male, 10 mg/kg, study b, powder, 10 mg/kg oral, day 28, M
[9] = male, 40 mg/kg, study b, powder, 40 mg/kg oral, day 1, M
[10] = male, 40 mg/kg, study b, powder, dose and days not printed in the row (40 mg/kg, day 28), M
[11] = male, 40 mg/kg, study b, powder, 40 mg/kg oral, day 28, M

CC(=O)N1CCN(c2ccc(OCC3COC(Cn4ccnc4)(c4ccc(Cl)cc4Cl)O3)cc2)CC1 (racemic) [Racemic ketoconazole, 1-acetyl-4-[4-[[2-(2,4-dichlorophenyl)-2-[(1H-imidazol-1-yl)-methyl]-1,3-dioxolan-4-yl]methoxy]phenyl]piperazine]
Cmax ([1]; both, 10 mg/kg, 10 mg/kg, day 28): 7520 to 9200 ng/mL
Cmax ([1]; both, 40 mg/kg, 40 mg/kg, day 28): 42800 to 46800 ng/mL
change of exposure (AUC, Cmax) with repeat dosing, day 28 vs day 1 ([1]; daily oral dosing for 28 days): AUC determined after a single dose was significantly reduced in comparison to the AUC determined after 28 daily doses; also recorded: significant increase between day 1 and day 28
AUC(0-t) [1, 2]: 6730 ng·h/mL
AUC(0-t) [1, 3]: 33100 ng·h/mL
Cmax [1, 2]: 1580 ng/mL
Cmax [1, 3]: 7520 ng/mL
concentration at 0 h [1, 2]: < 250 ng/mL
concentration at 1 h [1, 2]: 1300 ng/mL
concentration at 2 h [1, 2]: 1230 ng/mL
concentration at 4 h [1, 2]: 590 ng/mL
concentration at 8 h [1, 2]: < 250 ng/mL
concentration at 12 h [1, 2]: < 250 ng/mL
concentration at 0 h [1, 3]: < 250 ng/mL
concentration at 1 h [1, 3]: 7280 ng/mL
concentration at 2 h [1, 3]: 7210 ng/mL
concentration at 4 h [1, 3]: 4390 ng/mL
concentration at 8 h [1, 3]: 850 ng/mL
concentration at 12 h [1, 3]: < 250 ng/mL
Tmax [1, 2]: 1 to 8 h
Tmax [1, 3]: 1 to 2 h
AUC(0-t) [1, 4]: 42900 ng·h/mL
AUC(0-t) [1, 5]: 639000 ng·h/mL
Cmax [1, 4]: 6230 ng/mL
Cmax [1, 5]: 42800 ng/mL
concentration at 0 h [1, 4]: < 250 ng/mL
concentration at 1 h [1, 4]: 5650 ng/mL
concentration at 2 h [1, 4]: 5760 ng/mL
concentration at 4 h [1, 4]: 3300 ng/mL
concentration at 8 h [1, 4]: 1840 ng/mL
concentration at 12 h [1, 4]: 1550 ng/mL
concentration at 0 h [1, 6]: 12800 ng/mL
concentration at 1 h [1, 6]: 12300 ng/mL
concentration at 2 h [1, 6]: 31600 ng/mL
concentration at 4 h [1, 6]: 38600 ng/mL
concentration at 8 h [1, 6]: 40400 ng/mL
concentration at 12 h [1, 6]: 29900 ng/mL
Tmax [1, 4]: 2 to 12 h
Tmax [1, 5]: 4 to 8 h
AUC(0-t) [1, 7]: 9010 ng·h/mL
AUC(0-t) [1, 8]: 44200 ng·h/mL
Cmax [1, 7]: 1430 ng/mL
Cmax [1, 8]: 9200 ng/mL
concentration at 0 h [1, 7]: < 250 ng/mL
concentration at 1 h [1, 7]: 380 ng/mL
concentration at 2 h [1, 7]: 620 ng/mL
concentration at 4 h [1, 7]: 1180 ng/mL
concentration at 8 h [1, 7]: 330 ng/mL
concentration at 12 h [1, 7]: < 250 ng/mL
concentration at 0 h [1, 8]: < 250 ng/mL
concentration at 1 h [1, 8]: 7530 ng/mL
concentration at 2 h [1, 8]: 8630 ng/mL
concentration at 4 h [1, 8]: 6200 ng/mL
concentration at 8 h [1, 8]: 1440 ng/mL
concentration at 12 h [1, 8]: 430 ng/mL
Tmax [1, 7]: 2 to 4 h
Tmax [1, 8]: 1 to 2 h
AUC(0-t) [1, 9]: 180000 ng·h/mL
AUC(0-t) [1, 10]: 542000 ng·h/mL
Cmax [1, 9]: 23300 ng/mL
Cmax [1, 10]: 46800 ng/mL
concentration at 0 h [1, 9]: < 250 ng/mL
concentration at 1 h [1, 9]: 10300 ng/mL
concentration at 2 h [1, 9]: 14600 ng/mL
concentration at 4 h [1, 9]: 23100 ng/mL
concentration at 8 h [1, 9]: 10100 ng/mL
concentration at 12 h [1, 9]: 6700 ng/mL
concentration at 0 h [1, 11]: 3970 ng/mL
concentration at 1 h [1, 11]: 11900 ng/mL
concentration at 2 h [1, 11]: 24600 ng/mL
concentration at 4 h [1, 11]: 32700 ng/mL
concentration at 8 h [1, 11]: 46800 ng/mL
concentration at 12 h [1, 11]: 28300 ng/mL
Tmax [1, 9]: 2 to 4 h
Tmax [1, 10]: 8 h
concentrations with no detectable effect on LDH release (rat hepatocytes): below 75 microM
